# Experimental data as given in US9133148B2, “Carbamate compounds and of making and using same” (Abide Therapeutics, Inc., priority 2012, dated 2015).
# Key:
# Type in all cases: biochemical
# MAGL [1] = molecular target: T1, MAGL (Mus musculus (Mouse), UniProt O35678); experiment: Competitive ABPP, % inhibition at 1 uM, MAGL
# Method: (§1) In Vitro Competitive Activity-Based Protein Profiling.
# (§2) Proteomes (mouse brain membrane fraction or cell lysates) ([…], 1.0 mg/mL total protein concentration) were preincubated with varying concentrations of inhibitors at 37° C. After 30 min, FP-Rh (1.0 μL, 50 μM in DMSO) was added and the mixture was incubated for another 30 min at 37° C. Reactions were quenched with SDS loading buffer (50 μL—4×) and run on SDS-PAGE.
# ABHD6 [2] = molecular target: T2, ABHD6 (Mus musculus (Mouse), UniProt Q8R2Y0); experiment: Competitive ABPP, % inhibition at 1 uM, ABHD6
# Method: as §1, §2
# FAAH [3] = molecular target: T3, FAAH (Mus musculus (Mouse), UniProt O08914); experiment: Competitive ABPP, % inhibition at 1 uM, FAAH
# Method: as §1
# as §2, with “SDS-PAGE. Following gel imaging, serine hydrolase activity was determined by measuring fluorescent intensity of gel bands corresponding to MAGL, ABHD6 and FAAH using ImageJ 1.43u software.” for “SDS-PAGE.”
# ABHD6 [4] = molecular target: T2, ABHD6; experiment: In vitro competitive activity-based protein profiling (FP-Rh), mouse ABHD6; settings: mouse brain membrane proteome
# Method: as §1, §2
# FAAH [5] = molecular target: T3, FAAH; experiment: In vitro competitive activity-based protein profiling (FP-Rh), mouse FAAH; settings: mouse brain membrane proteome
# Method: as §1, §2
# MAGL [6] = molecular target: T1, MAGL; experiment: In vitro competitive activity-based protein profiling (FP-Rh), mouse MAGL; settings: mouse brain membrane proteome
# Method: as §1, §2
# T3 sequence (O08914 whole entry): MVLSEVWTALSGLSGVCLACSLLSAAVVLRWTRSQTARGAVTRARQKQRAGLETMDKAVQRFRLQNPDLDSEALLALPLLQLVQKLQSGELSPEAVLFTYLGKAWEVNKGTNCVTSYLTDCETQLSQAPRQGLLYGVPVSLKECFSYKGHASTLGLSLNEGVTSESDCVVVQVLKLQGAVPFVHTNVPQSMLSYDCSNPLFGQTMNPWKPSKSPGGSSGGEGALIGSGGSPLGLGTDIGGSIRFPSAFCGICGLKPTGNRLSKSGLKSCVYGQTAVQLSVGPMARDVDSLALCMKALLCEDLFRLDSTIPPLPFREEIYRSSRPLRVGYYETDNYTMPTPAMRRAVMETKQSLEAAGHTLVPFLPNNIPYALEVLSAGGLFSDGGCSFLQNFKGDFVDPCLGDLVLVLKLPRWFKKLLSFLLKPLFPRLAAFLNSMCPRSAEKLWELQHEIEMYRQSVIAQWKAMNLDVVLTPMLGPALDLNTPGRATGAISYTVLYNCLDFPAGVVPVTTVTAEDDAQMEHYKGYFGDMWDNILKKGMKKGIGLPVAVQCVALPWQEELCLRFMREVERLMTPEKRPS
# T1 sequence (O35678 whole entry): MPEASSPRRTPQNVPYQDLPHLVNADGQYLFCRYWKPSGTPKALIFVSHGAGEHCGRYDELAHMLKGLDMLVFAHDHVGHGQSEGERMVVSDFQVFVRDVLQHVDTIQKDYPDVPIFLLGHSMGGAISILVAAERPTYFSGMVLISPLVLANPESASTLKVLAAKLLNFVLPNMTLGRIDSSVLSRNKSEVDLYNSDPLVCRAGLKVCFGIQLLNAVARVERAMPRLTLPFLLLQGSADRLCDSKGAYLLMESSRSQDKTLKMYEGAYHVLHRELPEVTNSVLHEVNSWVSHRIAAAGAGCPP
# T2 sequence (Q8R2Y0 whole entry): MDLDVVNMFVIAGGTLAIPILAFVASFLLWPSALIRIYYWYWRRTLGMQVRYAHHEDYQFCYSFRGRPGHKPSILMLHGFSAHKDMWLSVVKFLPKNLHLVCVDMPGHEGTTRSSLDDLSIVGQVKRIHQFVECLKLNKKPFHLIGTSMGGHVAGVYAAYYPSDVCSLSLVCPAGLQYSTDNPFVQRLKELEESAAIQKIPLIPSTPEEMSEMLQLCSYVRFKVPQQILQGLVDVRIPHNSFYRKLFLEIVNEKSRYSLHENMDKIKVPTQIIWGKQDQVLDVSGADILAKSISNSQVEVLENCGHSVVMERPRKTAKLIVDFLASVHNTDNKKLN
SMILES,inhibition at 1 µM (MAGL [1]) [%],inhibition at 1 µM (ABHD6 [2]) [%],inhibition at 1 µM (FAAH [3]) [%],IC50 (ABHD6 [4]; competitive ABPP (Table 7)) [nM],IC50 (FAAH [5]; competitive ABPP (Table 7)) [nM],IC50 (MAGL [6]; competitive ABPP (Table 7)) [nM],other results
"CC(C)c1cc(-c2ccccc2)ccc1CN1CCN(C(=O)OC(C(F)(F)F)C(F)(F)F)CC1 [Example 9at, 1,1,1,3,3,3-hexafluoropropan-2-yl 4-((3-isopropyl-[1,1′-biphenyl]-4-yl)methyl)piperazine-1-carboxylate]",25 to 75,< 25,< 25,–,–,–,–
"CC1CN(C(=O)OC(C(F)(F)F)C(F)(F)F)CCN1C(c1ccc(Cl)cc1)c1ccc(Cl)cc1 (stereo not drawn) [Example 2h, 1,1,1,3,3,3-hexafluoropropan-2-yl 4-[bis(4-chlorophenyl)methyl]-3-methylpiperazine-1-carboxylate]",25 to 75,25 to 75,< 25,–,–,–,–
"O=C(OC(C(F)(F)F)C(F)(F)F)N1CCN(Cc2cccc(Cl)c2C(=O)N2CCOCC2)CC1 [Example 9bf, 1,1,1,3,3,3-hexafluoropropan-2-yl 4-(3-chloro-2-(morpholine-4-carbonyl)benzyl)piperazine-1-carboxylate]",25 to 75,< 25,< 25,–,–,–,–
"C[C@H]1CN(Cc2ccc(N3CCOCC3)cc2Cl)CCN1C(=O)OC(C(F)(F)F)C(F)(F)F [Example 9al, 1,1,1,3,3,3-hexafluoropropan-2-yl(2S)-4-[[2-chloro-4-(morpholin-4-yl)phenyl]methyl]-2-methylpiperazine-1-carboxylate]",25 to 75,25 to 75,< 25,–,–,–,–
"O=C(OC(C(F)(F)F)C(F)(F)F)N1CCN(Cc2ccc(N3CCOCC3)cc2C(F)(F)F)CC1 [Example 9aj, 1,1,1,3,3,3-hexafluoropropan-2-yl 4-[[4-(morpholin-4-yl)-2-(trifluoromethyl)phenyl]methyl]piperazine-1-carboxylate]",25 to 75,25 to 75,< 25,–,–,–,–
"O=C(OC(C(F)(F)F)C(F)(F)F)N1CCN(Cc2c(Cl)cccc2N2CCOCC2)CC1 [Example 9ac, 1,1,1,3,3,3-hexafluoropropan-2-yl 4-[[2-chloro-6-(morpholin-4-yl)phenyl]methyl]piperazine-1-carboxylate]",–,–,< 25,–,–,–,–
"O=C(OC(C(F)(F)F)C(F)(F)F)N1CCN(Cc2ccc(N3CCCC3)cc2Cl)CC1 [Example 9ab, 1,1,1,3,3,3-hexafluoropropan-2-yl 4-[[2-chloro-4-(pyrrolidin-1-yl)phenyl]methyl]piperazine-1-carboxylate]",–,–,–,> 1000,> 10000,100 to 1000,–
"O=C(OC(C(F)(F)F)C(F)(F)F)N1CCN(Cc2ccc(N3CCOCC3)c(Cl)c2)CC1 [Example 9h, 1,1,1,3,3,3-hexafluoropropan-2-yl 4-(3-chloro-4-morpholinobenzyl)piperazine-1-carboxylate]",–,–,–,100 to 1000,> 10000,100 to 1000,–
"Cn1ncc2cc(C(c3ccc4c(cnn4C)c3)N3CCN(C(=O)OC(C(F)(F)F)C(F)(F)F)CC3)ccc21 [Example 2k, 1,1,1,3,3,3-hexafluoropropan-2-yl 4-(bis(1-methyl-1H-indazol-5-yl)methyl)piperazine-1-carboxylate]",–,–,< 25,–,–,–,–
"O=C(OC(C(F)(F)F)C(F)(F)F)N1CCN(Cc2cccc(N3CCOCC3)c2)CC1 [Example 9ah, 1,1,1,3,3,3-hexafluoropropan-2-yl 4-(3-morpholinobenzyl)piperazine-1-carboxylate]",–,–,–,< 100,> 10000,< 100,–
"CC(C)(C)OC(=O)N1CCN(C(=O)OC(C(F)(F)F)C(F)(F)F)CC1 [Example 3d, 1-tert-butyl 4-(1,1,1,3,3,3-hexafluoropropan-2-yl)piperazine-1,4-dicarboxylate]",–,–,–,–,–,–,IC50 (ABHD6 [4]; competitive ABPP): > 1000 nM; IC50 (FAAH [5]; competitive ABPP): > 10000 nM; IC50 (MAGL [6]; competitive ABPP): > 1000 nM
"O=C(OC(C(F)(F)F)C(F)(F)F)N1CCN(Cc2ccc(C(=O)N3CCC3)cc2Cl)CC1 [Example 9be, 1,1,1,3,3,3-hexafluoropropan-2-yl 4-(4-(azetidine-1-carbonyl)-2-chlorobenzyl)piperazine-1-carboxylate]",–,–,–,100 to 1000,> 10000,100 to 1000,–
"O=C(OC(C(F)(F)F)C(F)(F)F)N1CCN(Cc2ccc(Cl)cc2)CC1 [Example 9o, 1,1,1,3,3,3-hexafluoropropan-2-yl 4-(4-chlorobenzyl)piperazine-1-carboxylate]",–,–,< 25,–,–,–,–
"O=C(OC(C(F)(F)F)C(F)(F)F)N1CCN(Cc2ccc(Br)cc2Oc2ccccc2)CC1 [Example 9b, 1,1,1,3,3,3-hexafluoropropan-2-yl 4-(4-bromo-2-phenoxybenzyl)piperazine-1-carboxylate]",–,–,–,–,–,–,IC50 (ABHD6 [4]; competitive ABPP): 100 to 1000 nM; IC50 (FAAH [5]; competitive ABPP): > 10000 nM; IC50 (MAGL [6]; competitive ABPP): < 100 nM
"O=C(OC(C(F)(F)F)C(F)(F)F)N1CCN(Cc2cccc(F)c2N2CCCC2)CC1 [Example 9as, 1,1,1,3,3,3-hexafluoropropan-2-yl 4-(3-fluoro-2-(pyrrolidin-1-yl)benzyl)piperazine-1-carboxylate]",–,–,–,> 1000,> 10000,100 to 1000,–
"Cc1cc(N2CCCC2)ccc1CN1CCN(C(=O)OC(C(F)(F)F)C(F)(F)F)CC1 [Example 9u, 1,1,1,3,3,3-hexafluoropropan-2-yl 4-(2-methyl-4-(pyrrolidin-1-yl)benzyl)piperazine-1-carboxylate]",–,–,–,> 1000,> 6250,100 to 1000,–
"Cc1ccc(CN2CCN(C(=O)OC(C(F)(F)F)C(F)(F)F)CC2)cc1 [Example 9w, 1,1,1,3,3,3-hexafluoropropan-2-yl 4-(4-methylbenzyl)piperazine-1-carboxylate]",–,–,–,> 1000,> 1250,< 100,–
"CC(=O)N1CCN(c2cc(Cl)ccc2CN2CCN(C(=O)OC(C(F)(F)F)C(F)(F)F)CC2)CC1 [Example 9aw, 1,1,1,3,3,3-hexafluoropropan-2-yl 4-(2-(4-acetylpiperazin-1-yl)-4-chlorobenzyl)piperazine-1-carboxylate]",–,–,–,> 1000,> 10000,100 to 1000,–

# Now from value to compound, other results behind:
inhibition at 1 µM (MAGL [1]) [%],inhibition at 1 µM (ABHD6 [2]) [%],inhibition at 1 µM (FAAH [3]) [%],IC50 (ABHD6 [4]; competitive ABPP (Table 7)) [nM],IC50 (FAAH [5]; competitive ABPP (Table 7)) [nM],IC50 (MAGL [6]; competitive ABPP (Table 7)) [nM],SMILES,other results
> 75,25 to 75,< 25,–,–,–,"Cc1cccc(-c2ccc(CN3CCN(C(=O)OC(C(F)(F)F)C(F)(F)F)CC3)nc2C)c1 [Example 11ad, 1,1,1,3,3,3-hexafluoropropan-2-yl 4-[[6-methyl-5-(3-methylphenyl)pyridin-2-yl]methyl]piperazine-1-carboxylate]",–
25 to 75,25 to 75,< 25,–,–,–,"CC1CN(C(=O)OC(C(F)(F)F)C(F)(F)F)CCN1Cc1ccc(-c2ccccc2)cc1 (stereo not drawn) [Example 11a, 1,1,1,3,3,3-hexafluoropropan-2-yl 3-methyl-4-[(4-phenylphenyl)methyl]piperazine-1-carboxylate]",–
25 to 75,25 to 75,< 25,–,–,–,"Cc1cccc(-c2ccc(CN3CCN(C(=O)OC(C(F)(F)F)C(F)(F)F)CC3)c(C)c2)n1 [Example 11z, 1,1,1,3,3,3-hexafluoropropan-2-yl 4-[[2-methyl-4-(6-methylpyridin-2-yl)phenyl]methyl]piperazine-1-carboxylate]",–
> 75,25 to 75,< 25,–,–,–,"Cc1cccc(-c2ccc(CN3CCN(C(=O)OC(C(F)(F)F)C(F)(F)F)CC3)c(C)n2)c1 [Example 11d, 1,1,1,3,3,3-hexafluoropropan-2-yl 4-[[2-methyl-6-(3-methylphenyl)pyridin-3-yl]methyl]piperazine-1-carboxylate]",–
> 75,25 to 75,< 25,–,–,–,"O=C(OC(C(F)(F)F)C(F)(F)F)N1CCN(Cc2ccc(-c3cccc(F)c3)cn2)CC1 [Example 11k, 1,1,1,3,3,3-hexafluoropropan-2-yl 4-[[5-(3-fluorophenyl)pyridin-2-yl]methyl]piperazine-1-carboxylate]",–
25 to 75,< 25,< 25,–,–,–,"Cc1cccc(-c2ccc(CN3CCN(C(=O)OC(C(F)(F)F)C(F)(F)F)CC3)c(C)c2)c1 [Example 11h, 1,1,1,3,3,3-hexafluoropropan-2-yl 4-[[2-methyl-4-(3-methylphenyl)phenyl]methyl]piperazine-1-carboxylate]",–
25 to 75,25 to 75,< 25,–,–,–,"Cc1nc(-c2ccccc2F)ccc1CN1CCN(C(=O)OC(C(F)(F)F)C(F)(F)F)CC1 [Example 11c, 1,1,1,3,3,3-hexafluoropropan-2-yl 4-[[6-(2-fluorophenyl)-2-methylpyridin-3-yl]methyl]piperazine-1-carboxylate]",–
25 to 75,25 to 75,< 25,–,–,–,"Cc1ccccc1-c1ccc(CN2CCN(C(=O)OC(C(F)(F)F)C(F)(F)F)CC2)nc1C [Example 11u, 1,1,1,3,3,3-hexafluoropropan-2-yl 4-[[6-methyl-5-(2-methylphenyl)pyridin-2-yl]methyl]piperazine-1-carboxylate]",–
–,–,–,> 1000,> 10000,100 to 1000,"Cc1cc(-c2ccccc2)ccc1CN1CCN(C(=O)OC(C(F)(F)F)C(F)(F)F)CC1 [Example 11q, 1,1,1,3,3,3-hexafluoropropan-2-yl 4-[(2-methyl-4-phenylphenyl)methyl]piperazine-1-carboxylate]",–
